Values of other authors in patent publication US20250152607A1, “COMPOSITIONS FOR VITAMIN D PRODUCTION” (DR WELLER LIMITED, priority 2022, published 2025).

Assays:
[1] = powder

In the case of pre-vitamin D, the “time for isomerization of pre-vitamin D to vitamin D to reach equilibrium” value (in hexane at 37° C.) is given as “up to 10 days”.

In the case of `CC(C)[C@@H](C)/C=C/[C@@H](C)[C@H]1CC[C@H]2C3=CC=C4C[C@@H](O)CC[C@]4(C)[C@H]3CC[C@]12C` [Ergosterol], the skin irritancy [1] is listed as “skin irritant”.

In the case of `CC1=C(/C=C\C2=CCC[C@]3(C)[C@@H]([C@H](C)CCCC(C)C)CC[C@@H]23)C[C@@H](O)CC1` [pre-vitamin D3], the “increase in rate of reaction for vitamin D3 formation from pre-vitamin D3” value (by interaction with membrane phospholipids) is given as “more than 10 fold”.
